The source of these data is publication PMC9927415, “Tyrosine Kinase Inhibitors Display Potent Activity against Cryptosporidium parvum” (Microbiology Spectrum, 2022).

Molecules are shown by their SMILES.

Holding throughout (assay): KINOMEscan competitive binding, whole panel
Assay [1] concerns the target T1, panel of 203 kinases (Homo sapiens, UniProt O15146).
T1 construct: purchased DiscoverX (KINOMEscan)
T1 sequence (O15146 24-869): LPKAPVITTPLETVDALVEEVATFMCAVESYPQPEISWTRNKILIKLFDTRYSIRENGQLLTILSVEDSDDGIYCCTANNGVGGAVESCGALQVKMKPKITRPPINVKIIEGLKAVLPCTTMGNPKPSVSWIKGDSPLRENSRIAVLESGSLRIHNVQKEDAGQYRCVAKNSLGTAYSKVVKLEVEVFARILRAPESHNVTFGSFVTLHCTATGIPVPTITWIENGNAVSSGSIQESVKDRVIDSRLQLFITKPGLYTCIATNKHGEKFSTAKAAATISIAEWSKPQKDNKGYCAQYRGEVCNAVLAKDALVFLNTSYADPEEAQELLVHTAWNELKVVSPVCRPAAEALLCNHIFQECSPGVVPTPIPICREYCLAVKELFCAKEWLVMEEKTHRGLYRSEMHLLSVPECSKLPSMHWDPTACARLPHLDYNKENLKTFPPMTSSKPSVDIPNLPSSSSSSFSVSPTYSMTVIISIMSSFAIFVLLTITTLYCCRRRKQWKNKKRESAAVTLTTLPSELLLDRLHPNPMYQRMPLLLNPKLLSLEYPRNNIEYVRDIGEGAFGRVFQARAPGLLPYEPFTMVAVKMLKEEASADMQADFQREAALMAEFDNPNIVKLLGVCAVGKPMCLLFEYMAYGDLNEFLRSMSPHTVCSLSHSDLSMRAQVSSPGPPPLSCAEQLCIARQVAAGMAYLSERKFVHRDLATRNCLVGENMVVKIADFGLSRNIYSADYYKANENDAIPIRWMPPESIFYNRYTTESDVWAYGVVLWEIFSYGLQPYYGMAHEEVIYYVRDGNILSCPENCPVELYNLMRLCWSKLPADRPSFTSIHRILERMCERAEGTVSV
Conditions: 10 µM, n=1; kinase MUSK; read-out: Percent inhibition MUSK. An outline of the steps:
(§1)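 Kinases expressed as T7 bacteriophage fusions; test compound competes with an immobilized ATP-site probe ligand. Kinase still bound to the solid support was quantified and expressed as percentage inhibition.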

Assay [2] addresses T2, panel of 203 kinases (Homo sapiens, UniProt Q8N5S9).
T2 construct: purchased DiscoverX (KINOMEscan)
Particulars: 10 µM, n=1; kinase CAMKK1; read-out: Percent inhibition CAMKK1. An outline of the steps: as §1

Assay [3] deals with T3, panel of 203 kinases (Homo sapiens, UniProt P78368).
T3 construct: purchased DiscoverX (KINOMEscan)
T3 sequence (P78368 whole entry): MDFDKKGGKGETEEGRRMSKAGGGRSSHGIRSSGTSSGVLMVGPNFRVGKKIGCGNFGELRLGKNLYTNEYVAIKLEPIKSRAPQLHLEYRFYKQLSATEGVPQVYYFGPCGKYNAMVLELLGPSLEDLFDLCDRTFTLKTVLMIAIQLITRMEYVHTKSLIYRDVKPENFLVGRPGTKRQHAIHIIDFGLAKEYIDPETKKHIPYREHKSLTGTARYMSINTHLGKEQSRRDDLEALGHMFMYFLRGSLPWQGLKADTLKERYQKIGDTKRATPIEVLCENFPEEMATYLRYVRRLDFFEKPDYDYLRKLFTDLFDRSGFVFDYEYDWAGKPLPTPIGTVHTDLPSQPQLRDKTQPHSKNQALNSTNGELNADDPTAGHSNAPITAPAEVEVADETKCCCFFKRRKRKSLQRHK
Conditions: 10 µM, n=1; kinase CSNK1G2; read-out: Percent inhibition CSNK1G2. The gist of the method: as §1

In assay [4] the target is T4, panel of 203 kinases (Homo sapiens, UniProt P45983).
T4 construct: purchased DiscoverX (KINOMEscan)
T4 sequence (P45983 whole entry): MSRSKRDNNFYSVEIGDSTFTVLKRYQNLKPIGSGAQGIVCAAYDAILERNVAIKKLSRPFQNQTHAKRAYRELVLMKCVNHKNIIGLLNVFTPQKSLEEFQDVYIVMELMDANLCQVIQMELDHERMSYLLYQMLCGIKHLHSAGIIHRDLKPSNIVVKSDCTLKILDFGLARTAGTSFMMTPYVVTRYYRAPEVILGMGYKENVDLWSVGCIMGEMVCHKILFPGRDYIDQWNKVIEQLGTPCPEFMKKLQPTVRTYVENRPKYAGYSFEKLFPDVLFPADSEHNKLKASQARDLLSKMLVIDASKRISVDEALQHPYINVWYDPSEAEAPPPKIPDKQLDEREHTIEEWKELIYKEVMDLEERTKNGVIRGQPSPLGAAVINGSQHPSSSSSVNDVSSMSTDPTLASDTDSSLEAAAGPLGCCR
Conditions: 10 µM, n=1; kinase JNK1; read-out: Percent inhibition JNK1. The gist of the method:
as §1

The target in assay [5] is T5, panel of 203 kinases (Homo sapiens, UniProt P29322).
T5 construct: purchased DiscoverX (KINOMEscan)
T5 sequence (P29322 28-1005): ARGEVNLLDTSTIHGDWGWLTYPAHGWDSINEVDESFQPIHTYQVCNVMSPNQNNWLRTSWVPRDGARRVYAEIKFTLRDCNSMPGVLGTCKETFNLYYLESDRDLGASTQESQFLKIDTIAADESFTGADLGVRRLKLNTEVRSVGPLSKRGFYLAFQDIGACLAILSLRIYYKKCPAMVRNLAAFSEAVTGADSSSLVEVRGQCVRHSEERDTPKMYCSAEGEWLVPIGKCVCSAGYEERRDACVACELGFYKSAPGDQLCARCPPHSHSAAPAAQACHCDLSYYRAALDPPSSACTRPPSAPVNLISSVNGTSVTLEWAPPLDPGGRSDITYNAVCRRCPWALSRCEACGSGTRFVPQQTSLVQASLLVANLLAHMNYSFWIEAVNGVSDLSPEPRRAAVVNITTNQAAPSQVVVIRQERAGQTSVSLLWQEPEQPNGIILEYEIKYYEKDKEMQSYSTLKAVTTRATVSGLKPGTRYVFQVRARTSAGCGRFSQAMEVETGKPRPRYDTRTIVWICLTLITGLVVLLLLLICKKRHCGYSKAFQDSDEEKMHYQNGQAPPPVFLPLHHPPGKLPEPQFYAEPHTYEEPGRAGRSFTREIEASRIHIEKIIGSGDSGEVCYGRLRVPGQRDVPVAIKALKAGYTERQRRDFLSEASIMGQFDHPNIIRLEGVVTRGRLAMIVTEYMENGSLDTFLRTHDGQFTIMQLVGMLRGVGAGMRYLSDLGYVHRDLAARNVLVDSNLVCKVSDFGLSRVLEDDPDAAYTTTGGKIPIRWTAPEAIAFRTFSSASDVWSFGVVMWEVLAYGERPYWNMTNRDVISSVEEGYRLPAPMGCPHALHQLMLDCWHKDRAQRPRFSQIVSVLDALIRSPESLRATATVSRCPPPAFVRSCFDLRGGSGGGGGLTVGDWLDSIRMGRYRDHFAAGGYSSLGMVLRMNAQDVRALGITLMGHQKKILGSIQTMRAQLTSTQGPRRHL
Conditions: 10 µM, n=1; kinase EPHA8; read-out: Percent inhibition EPHA8. An outline of the steps: as §1

For assay [6], the target named is T6, panel of 203 kinases (Homo sapiens, UniProt P06239).
T6 construct: purchased DiscoverX (KINOMEscan)
T6 sequence (P06239 whole entry): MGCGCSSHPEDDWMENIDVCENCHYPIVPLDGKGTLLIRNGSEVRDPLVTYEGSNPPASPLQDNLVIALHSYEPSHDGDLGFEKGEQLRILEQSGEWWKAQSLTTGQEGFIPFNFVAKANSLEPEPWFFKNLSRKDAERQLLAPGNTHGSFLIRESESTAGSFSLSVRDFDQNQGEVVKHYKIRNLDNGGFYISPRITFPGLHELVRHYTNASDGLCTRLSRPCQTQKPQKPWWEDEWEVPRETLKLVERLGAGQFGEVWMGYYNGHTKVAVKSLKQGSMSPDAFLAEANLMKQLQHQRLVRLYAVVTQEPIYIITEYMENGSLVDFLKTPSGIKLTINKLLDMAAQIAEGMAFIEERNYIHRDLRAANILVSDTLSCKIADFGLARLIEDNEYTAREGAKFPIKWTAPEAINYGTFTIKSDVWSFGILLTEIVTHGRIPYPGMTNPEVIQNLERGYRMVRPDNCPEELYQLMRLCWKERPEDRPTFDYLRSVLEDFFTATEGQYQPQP
Conditions: 10 µM, n=1; kinase LCK; read-out: Percent inhibition LCK. The gist of the method: as §1

In assay [7] the target is T7, panel of 203 kinases (Homo sapiens, UniProt P53671).
T7 construct: purchased DiscoverX (KINOMEscan)
T7 sequence (P53671 whole entry): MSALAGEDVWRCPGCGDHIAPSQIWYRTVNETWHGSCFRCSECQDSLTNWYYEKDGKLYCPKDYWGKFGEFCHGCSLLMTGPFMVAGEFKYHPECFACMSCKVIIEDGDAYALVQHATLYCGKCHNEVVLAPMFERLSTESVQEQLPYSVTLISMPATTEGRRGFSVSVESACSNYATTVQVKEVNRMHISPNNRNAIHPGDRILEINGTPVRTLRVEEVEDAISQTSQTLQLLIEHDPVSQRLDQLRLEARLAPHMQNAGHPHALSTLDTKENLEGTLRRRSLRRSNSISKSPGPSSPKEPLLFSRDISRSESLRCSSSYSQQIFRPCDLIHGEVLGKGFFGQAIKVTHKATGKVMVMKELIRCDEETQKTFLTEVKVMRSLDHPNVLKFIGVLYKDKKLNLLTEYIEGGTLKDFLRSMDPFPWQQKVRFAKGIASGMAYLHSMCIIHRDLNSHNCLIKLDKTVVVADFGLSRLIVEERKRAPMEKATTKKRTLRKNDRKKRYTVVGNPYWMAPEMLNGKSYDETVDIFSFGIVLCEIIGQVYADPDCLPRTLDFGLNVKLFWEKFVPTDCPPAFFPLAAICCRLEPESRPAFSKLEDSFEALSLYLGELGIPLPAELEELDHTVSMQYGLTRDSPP
Particulars: 10 µM, n=1; kinase LIMK2; read-out: Percent inhibition LIMK2. An outline of the steps:
as §1

Assay [8] concerns the target T8, panel of 203 kinases (Homo sapiens, UniProt Q9HAZ1).
T8 construct: purchased DiscoverX (KINOMEscan)
Conditions: 10 µM, n=1; kinase CLK4; read-out: Percent inhibition CLK4. The gist of the method:
as §1

Assay [9] deals with T9, panel of 203 kinases (Homo sapiens, UniProt P22607).
T9 construct: purchased DiscoverX (KINOMEscan)
T9 sequence (P22607 23-806): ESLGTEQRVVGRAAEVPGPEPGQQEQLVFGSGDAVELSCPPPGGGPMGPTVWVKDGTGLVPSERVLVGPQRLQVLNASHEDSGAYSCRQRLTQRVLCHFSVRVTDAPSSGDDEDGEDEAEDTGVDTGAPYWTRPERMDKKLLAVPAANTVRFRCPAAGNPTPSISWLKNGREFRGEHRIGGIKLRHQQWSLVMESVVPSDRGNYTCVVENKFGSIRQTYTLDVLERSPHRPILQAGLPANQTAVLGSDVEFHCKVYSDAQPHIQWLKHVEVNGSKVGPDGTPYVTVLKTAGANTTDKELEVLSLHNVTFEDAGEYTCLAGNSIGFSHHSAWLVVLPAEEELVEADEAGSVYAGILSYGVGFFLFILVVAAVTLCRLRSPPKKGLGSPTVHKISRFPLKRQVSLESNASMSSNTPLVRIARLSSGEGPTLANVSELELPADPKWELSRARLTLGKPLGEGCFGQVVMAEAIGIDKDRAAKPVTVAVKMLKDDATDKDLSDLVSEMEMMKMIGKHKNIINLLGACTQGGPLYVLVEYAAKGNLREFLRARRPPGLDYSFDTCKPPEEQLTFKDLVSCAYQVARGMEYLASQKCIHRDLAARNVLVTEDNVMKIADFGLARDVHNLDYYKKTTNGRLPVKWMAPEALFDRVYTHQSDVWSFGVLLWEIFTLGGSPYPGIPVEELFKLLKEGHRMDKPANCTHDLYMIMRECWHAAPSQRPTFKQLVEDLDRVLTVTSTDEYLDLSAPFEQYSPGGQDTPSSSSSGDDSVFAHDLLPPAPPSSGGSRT
Particulars: 10 µM, n=1; kinase FGFR3; read-out: Percent inhibition FGFR3. An outline of the steps:
as §1

Assay [10] has as its target T10, panel of 203 kinases (Homo sapiens, UniProt P07333).
T10 construct: purchased DiscoverX (KINOMEscan)
Conditions: 10 µM, n=1; kinase CSF1R; read-out: Percent inhibition CSF1R. The gist of the method: as §1

In assay [11] the target is T11, panel of 203 kinases (Homo sapiens, UniProt Q9Y4K4).
T11 construct: purchased DiscoverX (KINOMEscan)
Conditions: 10 µM, n=1; kinase MAP4K5; read-out: Percent inhibition MAP4K5. The gist of the method: as §1

The target in assay [12] is T12, panel of 203 kinases (Homo sapiens, UniProt P42685).
T12 construct: purchased DiscoverX (KINOMEscan)
Conditions: 10 µM, n=1; kinase FRK; read-out: Percent inhibition FRK. The gist of the method: as §1

T10 sequence (P07333 20-972): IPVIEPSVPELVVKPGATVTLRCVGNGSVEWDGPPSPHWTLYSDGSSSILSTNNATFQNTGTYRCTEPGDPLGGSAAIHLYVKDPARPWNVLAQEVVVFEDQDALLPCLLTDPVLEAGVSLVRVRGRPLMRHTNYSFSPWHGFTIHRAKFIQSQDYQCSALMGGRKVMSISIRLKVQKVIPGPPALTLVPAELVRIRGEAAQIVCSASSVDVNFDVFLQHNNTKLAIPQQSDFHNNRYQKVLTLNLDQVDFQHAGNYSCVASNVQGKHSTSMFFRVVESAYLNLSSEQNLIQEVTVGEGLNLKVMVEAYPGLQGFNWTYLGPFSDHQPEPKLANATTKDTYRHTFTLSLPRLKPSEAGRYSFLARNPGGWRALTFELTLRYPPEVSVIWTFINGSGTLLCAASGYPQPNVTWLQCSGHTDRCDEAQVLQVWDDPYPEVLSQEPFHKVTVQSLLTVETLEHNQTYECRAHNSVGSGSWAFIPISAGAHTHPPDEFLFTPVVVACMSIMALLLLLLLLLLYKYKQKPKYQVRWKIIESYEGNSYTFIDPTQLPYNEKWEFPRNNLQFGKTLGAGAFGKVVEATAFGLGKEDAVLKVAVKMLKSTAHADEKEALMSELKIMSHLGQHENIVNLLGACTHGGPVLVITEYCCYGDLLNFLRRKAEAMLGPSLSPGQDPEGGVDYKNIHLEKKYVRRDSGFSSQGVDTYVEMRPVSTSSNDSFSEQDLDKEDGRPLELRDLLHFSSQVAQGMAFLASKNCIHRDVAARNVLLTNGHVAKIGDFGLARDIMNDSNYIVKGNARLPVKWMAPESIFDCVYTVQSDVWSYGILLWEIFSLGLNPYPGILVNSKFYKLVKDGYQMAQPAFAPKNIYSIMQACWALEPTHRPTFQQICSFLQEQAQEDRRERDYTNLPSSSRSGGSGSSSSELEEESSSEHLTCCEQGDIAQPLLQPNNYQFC
T8 sequence (Q9HAZ1 whole entry): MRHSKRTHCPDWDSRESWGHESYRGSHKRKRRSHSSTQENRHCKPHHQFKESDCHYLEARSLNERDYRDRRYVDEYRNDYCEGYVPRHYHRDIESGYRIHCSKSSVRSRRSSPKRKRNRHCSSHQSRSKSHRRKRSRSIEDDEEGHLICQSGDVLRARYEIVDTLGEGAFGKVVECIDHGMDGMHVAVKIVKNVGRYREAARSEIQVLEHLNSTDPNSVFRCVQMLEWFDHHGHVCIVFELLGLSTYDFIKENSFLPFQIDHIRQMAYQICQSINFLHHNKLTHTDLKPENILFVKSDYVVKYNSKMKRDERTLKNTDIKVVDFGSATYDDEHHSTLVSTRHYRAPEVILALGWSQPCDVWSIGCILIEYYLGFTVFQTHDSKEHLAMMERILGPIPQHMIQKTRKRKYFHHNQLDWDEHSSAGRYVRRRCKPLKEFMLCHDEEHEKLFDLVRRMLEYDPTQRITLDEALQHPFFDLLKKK
T2 sequence (Q8N5S9 whole entry): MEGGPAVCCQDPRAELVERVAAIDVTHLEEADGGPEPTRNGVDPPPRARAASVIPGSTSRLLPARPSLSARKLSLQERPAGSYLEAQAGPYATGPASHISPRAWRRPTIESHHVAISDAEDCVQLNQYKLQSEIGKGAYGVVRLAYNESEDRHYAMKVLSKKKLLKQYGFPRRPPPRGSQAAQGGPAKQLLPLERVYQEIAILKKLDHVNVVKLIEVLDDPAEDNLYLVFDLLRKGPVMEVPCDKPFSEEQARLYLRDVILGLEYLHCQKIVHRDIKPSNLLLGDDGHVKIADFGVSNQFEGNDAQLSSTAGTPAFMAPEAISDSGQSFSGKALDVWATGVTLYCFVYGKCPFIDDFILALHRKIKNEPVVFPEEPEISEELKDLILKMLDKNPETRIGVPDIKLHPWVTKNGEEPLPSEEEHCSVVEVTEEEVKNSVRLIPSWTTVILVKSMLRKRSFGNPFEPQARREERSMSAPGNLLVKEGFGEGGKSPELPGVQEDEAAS

The term inhibition denotes the percentage by which the read-out fell short of the control. With `Nc1ncc2c(-c3ccncc3)c[nH]c2n1` [Compound 11], the inhibition at 10 µM was 93.9% at panel of 203 kinases [1]; 0% at panel of 203 kinases [2]; 89.7% at panel of 203 kinases [3]; 77.1% on panel of 203 kinases [4]; 0% on panel of 203 kinases [5]; 0% on panel of 203 kinases [6]. Moreover, the inhibition at 10 µM on panel of 203 kinases [7] worked out at 0%; at panel of 203 kinases [8] it was 93.4%; at panel of 203 kinases [9], 0%; at panel of 203 kinases [10] it was 0%; on panel of 203 kinases [11], 0%; at panel of 203 kinases [12], 0%.
